# Measurements: patent US20090306221A1, “Use for Cannabinoid” (GW PHARMA LIMITED, priority 2006, published 2009)
# Target: human cannabinoid CB2 receptors (Homo sapiens, UniProt P34972)
# Experiment: [35S]GTPγS binding assay, hCB2-transfected CHO cell membranes
# Conditions: stimulation of [35S]GTPγS binding
# Protocol: CHO cells were stably transfected with cDNA encoding human cannabinoid CB2 receptors and were maintained at 37° C. and 5% CO2 in Dulbecco's Modified Eagle's Medium nutrient mixture.
# The assays were carried out with GTPγS binding buffer (50 mM Tris-HCl; 50 mM Tris-Base; 5 mM MgCl2; 1 mM EDTA; 100 mM NaCl; 1 mM DTT; 0.1% BSA) in the presence of [^35S]GTPγS and GDP, in a final volume of 500 μl. Binding was initiated by the addition of [^35S]GTPγS to the tubes. The drugs were incubated in the assay for 60 min at 30° C. The reaction was terminated by a rapid vacuum filtration method using Tris buffer (50 mM Tris-HCl; 50 mM Tris-Base; 0.1% BSA), as described previously, and the radioactivity was quantified by liquid scintillation spectrometry.
# The agonism of the CB1 or CB2 receptors by CP55940 results in a response in the cell. This response is the binding of [^35S]GTPγS to the cell membrane.
# Changes in the response in the presence of the test compound can be measured in order to determine whether the compound is acting as an agonist, a neutral antagonist or an inverse agonist.
# Sequence of human cannabinoid CB2 receptors (P34972 whole entry): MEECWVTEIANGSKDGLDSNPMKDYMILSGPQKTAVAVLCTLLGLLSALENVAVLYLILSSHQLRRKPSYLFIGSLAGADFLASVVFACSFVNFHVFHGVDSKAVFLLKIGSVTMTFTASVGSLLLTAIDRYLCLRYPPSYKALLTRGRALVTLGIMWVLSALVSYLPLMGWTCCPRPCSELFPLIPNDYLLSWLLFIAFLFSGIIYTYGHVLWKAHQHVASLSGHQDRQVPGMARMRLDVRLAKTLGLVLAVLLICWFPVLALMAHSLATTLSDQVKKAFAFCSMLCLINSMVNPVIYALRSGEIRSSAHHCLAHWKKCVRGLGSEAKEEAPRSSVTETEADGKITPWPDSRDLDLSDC
substance,measurement,value
SR144528,shift in the log-concentration response curve of CP55940,downward and rightward shift
